{"source": "patent US5854268A", "about": "“Azetidine, pyrrolidine and piperidine derivatives” (Merck Sharp & Dohme, Ltd., priority 1994, dated 1998)", "origin": "cited, not measured here", "details": "therapeutic doses"}
{"smiles": "CNS(=O)(=O)Cc1ccc2[nH]cc(CCN(C)C)c2c1", "note": "[sumatriptan]", "values": [{"measurement": "adverse events in humans", "value": "certain adverse cardiovascular events"}]}
